Results: patent US20170325459A1, “BICYCLIC COMPOUNDS AS PEST CONTROL AGENTS” (Bayer CropScience Aktiengesellschaft, priority 2014, published 2017)

Key:
[1] = test system: Myzus persicae; assay: Myzus persicae spray test; type: in vivo; settings: Chinese cabbage leaf discs, after 6 days; for pest or weed control at 500 g/ha: Myzus persicae, foliar, 144 h, read-out: efficacy (aphids killed)
Protocol: Myzus persicae—Spray Test Solvent: 78 parts by weight of acetone • • 1.5 parts by weight of dimethylformamide Emulsifier: alkylaryl polyglycol ether To produce a suitable active ingredient formulation, 1 part by weight of active ingredient is dissolved using the specified parts by weight of solvent and made up with water containing an emulsifier concentration of 1000 ppm until the desired concentration is attained. To produce further test concentrations, the formulation is diluted with emulsifier-containing water. Discs of Chinese cabbage leaves (Brassica pekinensis) infested by all stages of the green peach aphid (Myzus persicae) are sprayed with an active ingredient formulation of the desired concentration. After 6 days, the efficacy in % is determined. 100% means that all the aphids have been killed and 0% means that none of the aphids have been killed.

[2] = log P by HPLC (OECD Guideline 117), method [a] acidic range pH 2.7; type: physicochemical; settings: for chromatographic logP: reversed-phase (RP) C18 HPLC column
Protocol: (§1) The log P values were determined in accordance with OECD Guideline 117 (EC Directive 92/69/EEC) by HPLC (high-performance liquid chromatography) using reversed-phase (RP) columns (C18), by the following methods: [a] The LC-MS determination in the acidic range is carried out at pH 2.7 with 0.1% aqueous formic acid and acetonitrile (contains 0.1% formic acid) as eluents; linear gradient from 10% acetonitrile to 95% acetonitrile. [b] LC-MS determination in the neutral range is effected at pH 7.8 with 0.001 molar aqueous ammonium hydrogencarbonate solution and acetonitrile as eluents; linear gradient from 10% acetonitrile to 95% acetonitrile. Calibration is effected using unbranched alkan-2-ones (having 3 to 16 carbon atoms) with known log P values (log P values determined on the basis of the retention times by linear interpolation between two successive alkanones).

[3] = log P by HPLC (OECD Guideline 117), method [b] neutral range pH 7.8; type: physicochemical; settings: for chromatographic logP: reversed-phase (RP) C18 HPLC column
Protocol: as §1

Compound	efficacy (aphids killed) ([1]; application rate 500 g/ha)	logP[a] [2]	logP[b] [3]	chromatographic logP [2]	also measured
CNC(=O)c1ccc2nc(-c3cncc(F)c3)sc2c1 [compound 58]	100%	1.67			
O=C(NCC(F)(F)F)c1ccc2nc(-c3cncc(F)c3)sc2c1 [compound 64]	90%	2.51			
Cc1ccc(-c2ccc3nc(-c4cccnc4)sc3c2)cc1 [compound 4]	100%	4.25	4.43		
CSCCNC(=O)c1ccc2nc(-c3cccnc3)sc2c1 [compound 69, N-[2-(Methylsulphanyl)ethyl]-2-(pyridin-3-yl)-1,3-benzothiazole-6-carboxamide]				1.83	pest or weed control at 500 g/ha ([1]; application rate 500 g/ha): 90%
Cn1c(=O)n(C)n(-c2ccc3nc(-c4cccnc4)sc3c2)c1=O [compound 47]	100%	1.52	1.63		
Cc1cc(F)c(Nc2ccc3nc(-c4cccnc4)sc3c2)cc1SCC(F)(F)F [compound 20, N-{2-Fluoro-4-methyl-5-[(2,2,2-trifluoroethyl)sulphanyl]phenyl}-2-(pyridin-3-yl)-1,3-benzothiazol-6-amine]				4.18	pest or weed control at 500 g/ha ([1]; application rate 500 g/ha): 90%; chromatographic logP [3]: 4.22
CON(C)C(=O)c1ccc2nc(-c3cncc(F)c3)sc2c1 [compound 66]	100%	2.16			
C[S+]([O-])Cn1cc(-c2ccc3nc(-c4cccnc4)sc3c2)cn1 (centres unmarked) [compound 39, 6-{1-[(Methylsulphinyl)methyl]-1H-pyrazol-4-yl}-2-(pyridin-3-yl)-1,3-benzothiazole]				1.32	pest or weed control at 500 g/ha ([1]; application rate 500 g/ha): 100%; chromatographic logP [3]: 1.51
O=C(NCc1ccccn1)c1ccc2nc(-c3cccnc3)sc2c1 [compound 33, 2-(Pyridin-3-yl)-N-(pyridin-2-ylmethyl)-1,3-benzothiazole-6-carboxamide]				1.15	pest or weed control at 500 g/ha ([1]; application rate 500 g/ha): 100%
CC(F)(F)CNC(=O)c1ccc2nc(-c3cncc(F)c3)sc2c1 [compound 68]	100%	2.39			
CSCCC(=O)N(C)c1ccc2nc(-c3cncc(F)c3)sc2c1 [compound 79]	100%	2.64			
CNC(=O)c1ccc2nc(-c3cccnc3)sc2c1 [compound 57]	100%	1.22			
FC(F)(F)CNc1ccc2nc(-c3cccnc3)sc2c1 [compound 13, 2-(Pyridin-3-yl)-N-(2,2,2-trifluoroethyl)-1,3-benzothiazol-6-amine]				2.36	pest or weed control at 500 g/ha ([1]; application rate 500 g/ha): 90%; chromatographic logP [3]: 2.47
CS(=O)(=O)CCC(=O)Nc1ccc2nc(-c3cccnc3)sc2c1 [compound 80]		1.22			efficacy (aphids killed) ([1]; application rate 20 g/ha): 100%
Cc1cc(C)c(SCC(F)(F)F)cc1Nc1ccc2nc(-c3cccnc3)sc2c1 [compound 18, N-{2,4-Dimethyl-5-[(2,2,2-trifluoroethyl)sulphanyl]phenyl}-2-(pyridin-3-yl)-1,3-benzothiazol-6-amine]				4.45	pest or weed control at 500 g/ha ([1]; application rate 500 g/ha): 90%; chromatographic logP [3]: 4.51
Cc1nn(-c2ccc3nc(-c4cccnc4)sc3c2)c(=S)n1C [compound 49]	90%	1.41	1.58		
Cc1cc(F)c(-c2ccc3nc(-c4cccnc4)sc3c2)cc1[S+]([O-])CC(F)(F)F (centres unmarked) [compound 12, 6-{2-Fluoro-4-methyl-5-[(2,2,2-trifluoroethyl)sulphinyl]phenyl}-2-(pyridin-3-yl)-1,3-benzothiazole]				3.33	pest or weed control at 500 g/ha ([1]; application rate 500 g/ha): 90%; chromatographic logP [3]: 3.33
c1cnc(-c2ccn(-c3ccc4nc(-c5cccnc5)sc4c3)n2)nc1 [compound 30, 2-(Pyridin-3-yl)-6-[3-(pyrimidin-2-yl)-1H-pyrazol-1-yl]-1,3-benzothiazole]					pest or weed control at 500 g/ha ([1]; application rate 500 g/ha): 90%; chromatographic logP [3]: 2
CN(C)C(=O)c1ccc2nc(-c3cccnc3)sc2c1 [compound 59]	100%	1.42			
Cn1cncc(-c2ccc3nc(-c4cccnc4)sc3c2)c1=O [compound 43]		1.34	1.51		
Ic1ccc2nc(-c3cccnc3)sc2c1 [I-a-2, 6-Iodo-2-(pyridin-3-yl)-1,3-benzothiazole]				3.37	chromatographic logP [3]: 3.39
CS(=O)(=O)CCNC(=O)c1ccc2nc(-c3cncc(F)c3)sc2c1 [compound 72]	90%				
Cc1cnn(-c2ccc3nc(-c4cccnc4)sc3c2)c1 [compound 45]	90%	2.62	2.71		

Compound	efficacy (aphids killed) ([1]; application rate 500 g/ha)	logP[a] [2]	logP[b] [3]	chromatographic logP [2]	also measured
FC(F)(F)c1cnn(-c2ccc3nc(-c4cccnc4)sc3c2)c1 [compound 27]	90%		3.42		
CSCCNC(=O)c1ccc2nc(-c3cncc(F)c3)sc2c1 [compound 70]	90%	2.31			
5-(Ethylsulphanyl)-4-methyl-2-[2-(pyridin-3-yl)-1,3-benzothiazol-6-yl]-2,4-dihydro-33H-1,2,4-triazol-3-one [compound 52]		2.84	2.97		
Cn1cnn(-c2ccc3nc(-c4cccnc4)sc3c2)c1=S [compound 46]	90%	1.35	1.49		
CN(C)C(=O)c1ccc2nc(-c3cncc(F)c3)sc2c1 [compound 60]	100%	1.9			
CCN(C)C(=O)c1ccc2nc(-c3cccnc3)sc2c1 [compound 61]	100%	1.71			
Cc1nn(-c2ccc3nc(-c4cccnc4)sc3c2)c(=O)n1C [compound 48]	90%	1.66	1.81		
COc1nn(-c2ccc3nc(-c4cccnc4)sc3c2)c(=O)n1C [compound 50]	90%				
c1cncc(-c2nc3ccc(NCC4CC4)cc3s2)c1 [compound 14]		2.5	2.94		
Fc1ccccc1-c1ccc2nc(-c3cccnc3)sc2c1 [compound 5]		3.7	3.78		
c1ccc(CNc2ccc3nc(-c4cccnc4)sc3c2)cc1 [compound 16]		2.91	3.12		
CCSc1ccccc1Nc1ccc2nc(-c3cccnc3)sc2c1 [compound 22]		4.32	4.44		
CS(=O)(=O)CCNC(=O)c1ccc2nc(-c3cccnc3)sc2c1 [compound 71, N-[2-(Methylsulphonyl)ethyl]-2-(pyridin-3-yl)-1,3-benzothiazole-6-carboxamide]				1.19	pest or weed control at 500 g/ha ([1]; application rate 500 g/ha): 100%
CC[S+]([O-])c1ccccc1Nc1ccc2nc(-c3cccnc3)sc2c1 (centres unmarked) [compound 23]		2.25	2.24		
CC(Nc1ccc2nc(-c3cccnc3)sc2c1)c1ccccc1 (centres unmarked) [compound 17]				3.23	chromatographic logP [3]: 3.33
CCN(C)C(=O)c1ccc2nc(-c3cncc(F)c3)sc2c1 [compound 62]	100%	2.2			
CN(C(=O)C1CCS(=O)(=O)C1)c1ccc2nc(-c3cccnc3)sc2c1 (centres unmarked) [compound 82]	90%	1.49			
CSCCC(=O)N(C)c1ccc2nc(-c3cccnc3)sc2c1 [compound 78]	100%	2.08			
CSCc1nn(-c2ccc3nc(-c4cccnc4)sc3c2)c(=O)n1C [compound 55, 4-Methyl-5-[(methylsulphanyl)methyl]-2-[2-(pyridin-3-yl)-1,3-benzothiazol-6-yl]-2,4-dihydro-3H-1,2,4-triazol-3-one]				2.23	chromatographic logP [3]: 2.36
CSCn1cc(-c2ccc3nc(-c4cccnc4)sc3c2)cn1 [compound 38, 6-{1-[(Methylsulphanyl)methyl]-1H-pyrazol-4-yl}-2-(pyridin-3-yl)-1,3-benzothiazole]				2.4	chromatographic logP [3]: 2.54
O=C(NCC(F)(F)F)c1ccc2nc(-c3cccnc3)sc2c1 [compound 32, 2-(Pyridin-3-yl)-N-(2,2,2-trifluoroethyl)-1,3-benzothiazole-6-carboxamide]				1.96	pest or weed control at 500 g/ha ([1]; application rate 500 g/ha): 100%
CON(C)C(=O)c1ccc2nc(-c3cccnc3)sc2c1 [compound 65]	100%	1.64			
CC1(C)OB(c2ccc3nc(-c4cccnc4)sc3c2)OC1(C)C [I-h-1, 2-(Pyridin-3-yl)-6-(4,4,5,5-tetramethyl-1,3,2-dioxaborolan-2-yl)-1,3-benzothiazole]				4.03	chromatographic logP [3]: 4.14
